Measured values reported in patent EP0286252A2, “Anti-cancer composition & method featuring cyanine dyes” (DANA FARBER CANCER INSTITUTE, priority 1987, dated 1988).

Assays:
[1] = test system: stomach cancer; conditions: treating stomach cancer in Japan; Antibiotics Chemother., Vol. 24 (1978); cited from earlier work
[2] = test system: human melanoma cell line, LOX; experiment: LOX melanoma survival test, nude mice protocol; format: in vivo, athymic Swiss nu/nu mice; conditions: for T/C: survival of treated vs untreated control group, 5 million LOX cells IP, IP treatment from day 1, lower dosage schedule for Dye 5
Excerpt: (§1) Figs. 1-8 are a plot of survival rates of a cancer in an animal model, either treated as per the invention or untreated. In these plots, "% survival" means the % of the total group (treated "T" or control "C") still surviving on the day in question. The 50% data point is selected for the T/C calculation, as being the point that is statistically meaningful.
(§2) In the examples that follow, "nude mice protocol" refers to conventional xenografted human carcinoma or melanoma cells implanted into athymic mice. […] This has been reported in, e.g., the Journal of the National Cancer Institute, Vol. 74, No. 4, p. 899-903, especially p. […] (April 1985).
A human melanoma cell line, LOX, was utilized that grows rapidly when innoculated into the peritoneal cavity of athymic mice. Tumors which had been passaged subcutaneously in athymic mice were excised under sterile conditions and converted to a single cell suspension using a metal grid with a 4 mm mesh. Red blood cells were then lysed by incubation with 0.17 molar ammonium chloride at 4°C for 20 minutes. Cells were then scored for viability with trypan blue and 5 million viable cells made up in 0.1 ml of Dulbecco modified Eagles' medium (DME) were injected intraperitoneally into a group of athymic Swiss nu/nu mice (day 0). The mice were then randomly allocated into treatment and control groups. Treatment, by intraperitoneal injection, commenced the following day (day 1). Mice received dye No. 1 or Dye No. 2 at 1 mg/kg daily for five days followed by 1.5 mg/kg on day 8, 10, 12, 14 and 16, and twice a week at 2 mg/kg thereafter. There were 10 mice in each of the treatment groups and control group. The control group received 5% dextrose solution equal in volume to that of the Dye No. 1 treated group.
In the same experiment, the comparative example 1 was administered to 10 mice using the following schedule: 0.2 mg/kg daily for five days followed by 0.5 mg/kg on day 8, 10, 12, 14 and 16, and twice a week at 1 mg/kg thereafter.
T/C is the ratio, expressed as a percentage, of mean survival age of the treated group, to the mean survival age of the untreated control group.

[3] = test system: CX-1 (human colon carcinoma); experiment: clonogenic in vitro study, inhibition of cell colony formation; format: cell-based; conditions: concentration of dye that inhibits 50% of cell colony formation, regular lighting conditions of laboratories; for IC50: Homo sapiens
Excerpt: As noted above, one of the advantages of the invention is that the cyanines described herein selectively attack the cancer cells as opposed to normal cells. Although knowledge of the mechanism is not essential to the practice of the invention, it is believed this occurs through the preferential inhibition of oxygen consumption in the mitochondria of the cancer cells. Such selectivity is further shown in clonogenic in vitro studies carried out in conventional fashion. That is, cell cultures of CX-1 (human colon carcinoma) and CV-1 (normal monkey epithelial cells) are prepared and treated at various concentrations, in the conventional manner, and the concentration of the dye that inhibits 50% of the cell colony formation is denoted as IC₅₀. This IC₅₀ value is compared for both the CX-1 and CV-1 lines; that is, the value for CV-1 is divided by the value for CX-1. If the value is 10 µg/ml for CV-1, and 1 µg/ml for CX-1, then the dye is 10 times as effective in killing off the colon carcinoma cells, compared to the monkey epithelial cells. This is expressed as a selectivity "S" of 10.
The selectivity values, and the CX-1 values for four of the cyanines of this invention obtained and tested under regular lighting conditions of laboratories, are listed below in Table I, along with a fifth cyanine used for comparative purposes.

[4] = test system: MB49 tumor cells; experiment: mouse bladder carcinoma survival test, dyes given intraperitoneally; format: in vivo, normal male BDF1 mice
Procedure: as §1
MB49 tumor cells, that is, mouse carcinoma cells induced by the carcinogen 7,12-dimethylbenz[a]anthracene, were injected intraperitoneally into normal male BDF1 mice (2 X 10⁶/mouse on day 0). Cyanine Dye No. 1 or No. 2, was administered intraperitioneally in the following manner: 0.2 mg/kg on day 1, 0.4 mg/kg on day 2, 0.8 mg/kg on day 3, 1.2 mg/kg on day 4, 1.5 mg/kg on days 8, 12, 16, 20, 24. (No further injection was used thereafter). […] (No further injection was used thereafter.) The control group of 10 mice was treated with equal volume of 5% dextrose as those treated with dye no. 1. The survival rate was calculated as in the previous examples.

[5] = test system: CX-1 (human colon carcinoma) and CV-1 (normal monkey epithelial cells); experiment: clonogenic in vitro selectivity, IC50 for CV-1 divided by IC50 for CX-1; format: cell-based; conditions: selectivity: IC50 value for CV-1 divided by value for CX-1
Procedure: That is, cell cultures of CX-1 (human colon carcinoma) and CV-1 (normal monkey epithelial cells) are prepared and treated at various concentrations, in the conventional manner, and the concentration of the dye that inhibits 50% of the cell colony formation is denoted as IC₅₀. This IC₅₀ value is compared for both the CX-1 and CV-1 lines; that is, the value for CV-1 is divided by the value for CX-1. […] This is expressed as a selectivity "S" of 10.
Their generic structure is as follows: [drawing 7]

[6] = test system: OVCAR -3, a human ovarian carcinoma cell line; experiment: ovarian carcinoma survival test, nude mice protocol; format: in vivo, athymic Swiss nu/nu mice; conditions: survival of treated vs control; ten million OVCAR-3 cells IP; IP treatment; lower dosage schedule for Dye 5
Excerpt: as §1, §2
Dye Nos. 1 and 2 were repeated, except the cancer that was treated was OVCAR -3, a human ovarian carcinoma cell line of which ten million cells were injected IP into athymic Swiss nu/nu mice. For Ex. 5, 10 mice received dye 1 by IP injection commenced the day after the cancer injection, and repeated daily at 1.5 mg/kg for four days followed by 2 mg/kg on day 7, 10, 13, 16, 19 and 21, and twice a week at 2 mg/kg thereafter. Ten mice having such injected cancer were selected as a control group and received an equal volume of 5% dextrose as that of the treated group.
For Ex. 6, 10 mice received dye no. […]

Question: With COc1cccc2c1C(=O)c1c(O)c3c(c(O)c1C2=O)C[C@@](O)(C(=O)CO)C[C@@H]3O[C@H]1C[C@H](N)[C@H](O)[C@H](C)O1 [Adriamycin] as the compound, how does the effective response rate [1] read?
Answer: 14.5%

Question: For CN1C(=CC=Cc2sc3ccccc3[n+]2C)Sc2ccccc21 [Dye No. 1, 3-methyl-2-[3-(3-methyl-4-benzo-thiazolin-2-ylidene)-1-propen-1-yl]-benzo-thiazolium chloride], which T/C [2] is on record?
Answer: 205%

Question: For CCN1C(=CC=Cc2sc3ccccc3[n+]2CC)Sc2ccccc21 [Dye No. 2, 3-ethyl-2-[3-(3-ethyl-4-benzothia-zolin-2-ylidene)-1-propen-1-yl]-benzothiazolium iodide], which T/C [2] is on record?
Answer: 176%

Question: Which “CX-1 Value” ([3]; listed as 3) does the source give for CCCN1C(=CC=Cc2sc3ccccc3[n+]2CCC)Sc2ccccc21 [Dye No. 5, 3-propyl-2-[3-(3-propyl-4-benzothia-zolin-2-ylidene)-1-propen-1-yl]benzothiazolium iodide] here?
Answer: .004 µg/mL

Question: What about the “toxicity at the dosage of Dye No. 1” value ([2]; LOX-bearing athymic mice, IP, dosage schedule of Dye No. 1 (1 mg/kg daily for five days, then 1.5 and 2 mg/kg)) of the same compound?
Answer: killed the mice before the 50% survival point of the control could be reached

Question: What about the T/C ([2]; listed as 3) of the same compound?
Answer: 168%

Question: And the “outcome of treatment (verdict in words)” value ([4]; MB49 mouse bladder carcinoma, IP)?
Answer: failure

Question: Which IC50 [3] does the source give for CN1C(=CC=Cc2sc3ccccc3[n+]2C)Sc2ccccc21 [compound 1] here?
Answer: 5 ng/mL

Question: With CCN1C(=CC=Cc2sc3ccccc3[n+]2CC)Sc2ccccc21 [compound 2] as the compound, how does the IC50 [3] read?
Answer: 5 ng/mL

Question: With CCN1C(=CC=c2sc(=Cc3sc4c([n+]3CC)CCCC4)n(CC)c2=O)Oc2ccccc21 [compound 4] as the compound, how does the IC50 [3] read?
Answer: 50 ng/mL

Question: What about the S [5] of the same compound?
Answer: 100

Question: And the T/C [2]?
Answer: 166%

Question: With CCCN1C(=CC=Cc2sc3ccccc3[n+]2CCC)Sc2ccccc21 [compound 5] as the compound, how does the “CX-1 Value” [3] read?
Answer: .009 µg/mL

Question: And the S [5]?
Answer: 22

Question: And the T/C [2]?
Answer: 128%

Question: And the T/C [6]?
Answer: 138%

Question: What about the T/C ([4]; survival of treated vs control, 2 X 10^6 MB49 cells/mouse IP, IP treatment, lower dosage schedule for dye No. 5) of the same compound?
Answer: 113%

Question: Which S [5] does the source give for CCN1C(=CC(=Cc2sc3ccccc3[n+]2C)SC)Sc2ccccc21 [compound 6] here?
Answer: 37.5

Question: With CCC(=Cc1oc2ccccc2[n+]1CC)C=C1Sc2ccccc2N1CC [compound 7] as the compound, how does the S [5] read?
Answer: 33.3
